For 20 compounds, inhibition, IC50 and EC50 results are on record in US20060089378A1 (priority 2004, published 2006).

pEC50, pIC50: −log10 of the molar value. Where two headings read alike, the source gives them in different places.

In experiment [1] the target is T1, Cannabinoid CB2 Receptor (Homo sapiens, UniProt P34972).
T1 construct: expressed in transfected cells
Nature of the experiment: Binding assay for CB2 agonists or inverse agonists (radioligand competition, membranes of transfected SK-N-MC cells). The note with it: read-out: Cannabinoid CB2 Receptor Binding percent inhibition.

Experiment [2] has as its target T2, Cannabinoid CB1 Receptor (Homo sapiens, UniProt P21554).
T2 construct: expressed in transfected cells
Nature of the experiment: Binding assay for CB1 agonists or inverse agonists (radioligand competition, membranes of transfected SK-N-MC cells).

Experiment [3] has as its target CB1 receptor (human) (Homo sapiens, UniProt P21554). Nature of the experiment: cell-based.
[4] abbreviates: test concentration of 0.2 μM, compounds without an IC50 binding value.

T1 sequence (P34972 whole entry): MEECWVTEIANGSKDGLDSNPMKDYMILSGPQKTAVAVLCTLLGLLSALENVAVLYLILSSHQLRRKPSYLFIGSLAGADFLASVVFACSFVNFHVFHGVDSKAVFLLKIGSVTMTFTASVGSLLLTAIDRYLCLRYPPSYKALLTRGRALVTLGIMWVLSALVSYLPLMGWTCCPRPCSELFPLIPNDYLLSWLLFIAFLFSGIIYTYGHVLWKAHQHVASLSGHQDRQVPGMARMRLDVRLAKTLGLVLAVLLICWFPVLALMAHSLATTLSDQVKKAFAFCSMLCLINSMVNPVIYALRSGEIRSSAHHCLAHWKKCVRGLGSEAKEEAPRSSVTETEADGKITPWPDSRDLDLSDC
Sequence of CB1 receptor (human) (P21554 whole entry): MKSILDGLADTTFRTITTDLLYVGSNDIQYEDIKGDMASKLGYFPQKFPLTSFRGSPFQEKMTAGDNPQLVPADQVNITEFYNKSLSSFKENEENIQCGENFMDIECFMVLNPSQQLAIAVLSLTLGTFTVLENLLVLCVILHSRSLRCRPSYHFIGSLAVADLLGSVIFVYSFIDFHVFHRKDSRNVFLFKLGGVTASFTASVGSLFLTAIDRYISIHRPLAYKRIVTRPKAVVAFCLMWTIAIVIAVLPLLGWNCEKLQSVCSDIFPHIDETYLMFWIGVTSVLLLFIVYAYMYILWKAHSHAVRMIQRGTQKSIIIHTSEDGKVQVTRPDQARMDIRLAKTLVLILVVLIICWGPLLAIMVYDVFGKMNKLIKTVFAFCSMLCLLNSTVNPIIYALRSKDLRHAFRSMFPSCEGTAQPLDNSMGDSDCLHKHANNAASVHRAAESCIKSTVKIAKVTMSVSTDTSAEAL
T2 sequence (P21554 whole entry): as above

For the compound `COc1ccc(/C=C2\CN(S(C)(=O)=O)Cc3c(C(=O)NN4CCCCC4)nn(-c4ccc(Cl)cc4Cl)c32)cc1` [Cpd 53, (7E)-1-(2,4-dichloro-phenyl)-5-methanesulfonyl-7-(4-methoxy-benzylidene)-4,5,6,7-tetrahydro-1H-pyrazolo[4,3-c]pyridine-3-carboxylic acid piperidin-1-ylamide], the inhibition at 0.2 µM in experiment [1] was determined as 29%. For the same compound, the pIC50 in experiment [2] is 7.52. The negative logarithm of the EC50 (pEC50) in experiment [3] was 8.30.

Take `COc1ccc(/C=C2\CN(C(C)=O)Cc3c(C(=O)NN4CCCCC4)nn(-c4ccc(Cl)cc4Cl)c32)cc1` [Cpd 54, (7E)-5-acetyl-1-(2,4-dichloro-phenyl)-7-(4-methoxy-benzylidene)-4,5,6,7-tetrahydro-1H-pyrazolo[4,3-c]pyridine-3-carboxylic acid piperidin-1-ylamide]: the inhibition at 0.2 µM in experiment [1] came out at 24%. For the same compound, in experiment [2], the pIC50 was 7.40. Also, the pEC50 in experiment [3] was 8.30.

Take `COC(=O)N1C/C(=C\c2ccc(OC)cc2)c2c(c(C(=O)NN3CCCCC3)nn2-c2ccc(Cl)cc2Cl)C1` [Cpd 55, (7E)-1-(2,4-dichloro-phenyl)-7-(4-methoxy-benzylidene)-3-(piperidin-1-ylcarbamoyl)-1,4,6,7-tetrahydro-pyrazolo[4,3-c]pyridine-5-carboxylic acid methyl ester]: the inhibition at 0.2 µM in experiment [1] was 66%. The same compound showed a negative logarithm of the IC50 (pIC50) in experiment [2] of 8.30. The compound also gave a negative logarithm of the EC50 (pEC50) in experiment [3] of 8.70.

With `CCNC(=O)N1C/C(=C\c2ccc(OC)cc2)c2c(c(C(=O)NN3CCCCC3)nn2-c2ccc(Cl)cc2Cl)C1` [Cpd 56, (7E)-1-(2,4-dichloro-phenyl)-7-(4-methoxy-benzylidene)-1,4,6,7-tetrahydro-pyrazolo[4,3-c]pyridine-3,5-dicarboxylic acid 5-ethylamide 3-piperidin-1-ylamide], the inhibition at 0.2 µM in experiment [1] came to 28%. This compound also showed a negative-log IC50 (pIC50) in experiment [2] of 7.70. The pEC50 in experiment [3] was 8.15.

As for `C[C@@H](NC(=O)c1nn(-c2ccc(Cl)cc2)c2c1CN(C(=O)OC(C)(C)C)C/C2=C\c1ccc(F)cc1)c1ccccc1` [Cpd 57, (7E)-1-(4-chloro-phenyl)-7-(4-fluoro-benzylidene)-3-[(1R)-1-phenyl-ethylcarbamoyl]-1,4,6,7-tetrahydro-pyrazolo[4,3-c]pyridine-5-carboxylic acid tert-butyl ester], the inhibition at 0.2 µM in experiment [1] (setting [4]) was 13%. Further, the pIC50 in experiment [2] is 7.52. This compound showed a pEC50 in experiment [3] of 7.70.

Turning to `COc1ccc(/C=C2\CN(S(=O)(=O)N(C)C)Cc3c(C(=O)NN4CCCCC4)nn(-c4ccc(Cl)cc4Cl)c32)cc1` [Cpd 58, (7E)-1-(2,4-dichloro-phenyl)-5-dimethylsulfamoyl-7-(4-methoxy-benzylidene)-4,5,6,7-tetrahydro-1H-pyrazolo[4,3-c]pyridine-3-carboxylic acid piperidin-1-ylamide], in experiment [1], the inhibition at 0.2 µM was determined as 53%. In addition, in experiment [2], the pIC50 is 7.70. Moreover, the pEC50 in experiment [3] was 8.52.

Regarding `CCOC(=O)CN1C/C(=C\c2ccc(OC)cc2)c2c(c(C(=O)NN3CCCCC3)nn2-c2ccc(Cl)cc2Cl)C1` [Cpd 59, (7E)-[1-(2,4-dichloro-phenyl)-7-(4-methoxy-benzylidene)-3-(piperidin-1-ylcarbamoyl)-1,4,6,7-tetrahydro-pyrazolo[4,3-c]pyridin-5-yl]-acetic acid ethyl ester], the inhibition at 0.2 µM in experiment [1] turned out to be 23%. The compound further gave a pIC50 in experiment [2] of 7.40. Besides, in experiment [3], the pEC50 was 7.52.

As for `COc1ccc(/C=C2\CN(C(C)=O)Cc3c(C(=O)NC(C)c4ccccn4)nn(-c4ccc(Cl)cc4Cl)c32)cc1` (stereo not drawn) [Cpd 60, (7E)-5-acetyl-1-(2,4-dichloro-phenyl)-7-(4-methoxy-benzylidene)-4,5,6,7-tetrahydro-1H-pyrazolo[4,3-c]pyridine-3-carboxylic acid (1-pyridin-2-yl-ethyl)-amide], the inhibition at 0.2 µM in experiment [1] (setting [4]) was 28%. The pIC50 in experiment [2] is 7.70. In experiment [3], this compound had a pEC50 of 8.15.

Consider `CCNC(=O)N1C/C(=C\c2ccc(OC)cc2)c2c(c(C(=O)NC(C)c3ccccn3)nn2-c2ccc(Cl)cc2Cl)C1` (stereo not drawn) [Cpd 61, (7E)-1-(2,4-dichloro-phenyl)-7-(4-methoxy-benzylidene)-1,4,6,7-tetrahydro-pyrazolo[4,3-c]pyridine-3,5-dicarboxylic acid 5-ethylamide 3-[(1-pyridin-2-yl-ethyl)-amide]], for which the inhibition at 0.2 µM in experiment [1] amounted to 7%. In experiment [2], this compound had a negative-log IC50 (pIC50) of 7.70. For the same compound, the negative logarithm of the EC50 (pEC50) in experiment [3] is 8.30.

In the case of `COC(=O)N1C/C(=C\c2ccc(OC)cc2)c2c(c(C(=O)NC(C)c3ccccn3)nn2-c2ccc(Cl)cc2Cl)C1` (stereo not drawn) [Cpd 62, (7E)-1-(2,4-dichloro-phenyl)-7-(4-methoxy-benzylidene)-3-(1-pyridin-2-yl-ethylcarbamoyl)-1,4,6,7-tetrahydro-pyrazolo[4,3-c]pyridine-5-carboxylic acid methyl ester], in experiment [1], the inhibition at 0.2 µM worked out at 70%. Moreover, in experiment [2], the negative-log IC50 (pIC50) is 8.30. Besides, in experiment [3], the negative-log EC50 (pEC50) was 8.70.

Turning to `COc1ccc(/C=C2\CN(S(C)(=O)=O)Cc3c(C(=O)NC(C)c4ccccn4)nn(-c4ccc(Cl)cc4Cl)c32)cc1` (stereo not drawn) [Cpd 63, (7E)-1-(2,4-dichloro-phenyl)-5-methanesulfonyl-7-(4-methoxy-benzylidene)-4,5,6,7-tetrahydro-1H-pyrazolo[4,3-c]pyridine-3-carboxylic acid (1-pyridin-2-yl-ethyl)-amide], the inhibition at 0.2 µM in experiment [1] turned out to be 48%. In addition, the pIC50 in experiment [2] is 8.22. Moreover, in experiment [3], the pEC50 was 8.52.

Regarding `COc1ccc(/C=C2\CN(S(=O)(=O)N(C)C)Cc3c(C(=O)NC(C)c4ccccn4)nn(-c4ccc(Cl)cc4Cl)c32)cc1` (stereo not drawn) [Cpd 64, (7E)-1-(2,4-dichloro-phenyl)-5-dimethylsulfamoyl-7-(4-methoxy-benzylidene)-4,5,6,7-tetrahydro-1H-pyrazolo[4,3-c]pyridine-3-carboxylic acid (1-pyridin-2-yl-ethyl)-amide], the inhibition at 0.2 µM in experiment [1] worked out at 62%. In experiment [2], the pIC50 is 8.22. Further, in experiment [3], the pEC50 is 9.00.

For `CCOC(=O)CN1C/C(=C\c2ccc(OC)cc2)c2c(c(C(=O)NC(C)c3ccccn3)nn2-c2ccc(Cl)cc2Cl)C1` (stereo not drawn) [Cpd 65, (7E)-[1-(2,4-dichloro-phenyl)-7-(4-methoxy-benzylidene)-3-(1-pyridin-2-yl-ethylcarbamoyl)-1,4,6,7-tetrahydro-pyrazolo[4,3-c]pyridin-5-yl]-acetic acid ethyl ester], in experiment [1], the inhibition at 0.2 µM worked out at 39%. For the same compound, in experiment [2], the pIC50 was 8.00. This compound also had a pEC50 in experiment [3] of 8.05.

With `C[C@@H](NC(=O)c1nn(-c2ccc(Cl)cc2)c2c1CNC/C2=C\c1ccc(F)cc1)c1ccccc1` [Cpd 66, (7E)-1-(4-chloro-phenyl)-7-(4-fluoro-benzylidene)-4,5,6,7-tetrahydro-1H-pyrazolo[4,3-c]pyridine-3-carboxylic acid [(1R)-1-phenyl-ethyl]-amide], the inhibition at 0.2 µM in experiment [1] (setting [4]) was found to be 5%. This compound also showed a pIC50 in experiment [2] of 7.70. Also, the pEC50 in experiment [3] was 8.00.

`COC(=O)N1C/C(=C\c2ccc(F)cc2)c2c(c(C(=O)N[C@H](C)c3ccccc3)nn2-c2ccc(Cl)cc2)C1` [Cpd 67, (7E)-1-(4-chloro-phenyl)-7-(4-fluoro-benzylidene)-3-[(1R)-1-phenyl-ethylcarbamoyl]-1,4,6,7-tetrahydro-pyrazolo[4,3-c]pyridine-5-carboxylic acid methyl ester]: the inhibition at 0.2 µM in experiment [1] stood at 19%. Also, in experiment [2], the negative logarithm of the IC50 (pIC50) is 8.30. This compound also showed a pEC50 in experiment [3] of 9.00.

Take `CC(=O)N1C/C(=C\c2ccc(F)cc2)c2c(c(C(=O)N[C@H](C)c3ccccc3)nn2-c2ccc(Cl)cc2)C1` [Cpd 68, (7E)-5-acetyl-1-(4-chloro-phenyl)-7-(4-fluoro-benzylidene)-4,5,6,7-tetrahydro-1H-pyrazolo[4,3-c]pyridine-3-carboxylic acid [(1R)-1-phenyl-ethyl]-amide]: the inhibition at 0.2 µM in experiment [1] is 11%. The same compound showed a pIC50 in experiment [2] of 7.70. This compound gave a pEC50 in experiment [3] of 8.52.

As for `CCNC(=O)N1C/C(=C\c2ccc(F)cc2)c2c(c(C(=O)N[C@H](C)c3ccccc3)nn2-c2ccc(Cl)cc2)C1` [Cpd 69, (7E)-1-(4-chloro-phenyl)-7-(4-fluoro-benzylidene)-1,4,6,7-tetrahydro-pyrazolo[4,3-c]pyridine-3,5-dicarboxylic acid 5-ethylamide 3-{[(1R)-1-phenyl-ethyl]-amide}], the inhibition at 0.2 µM in experiment [1] worked out at 0%. In addition, the negative-log IC50 (pIC50) in experiment [2] is 7.52. This compound gave a pEC50 in experiment [3] of 8.30.

On to `C[C@@H](NC(=O)c1nn(-c2ccc(Cl)cc2)c2c1CN(S(=O)(=O)N(C)C)C/C2=C\c1ccc(F)cc1)c1ccccc1` [Cpd 70, (7E)-1-(4-chloro-phenyl)-5-dimethylsulfamoyl-7-(4-fluoro-benzylidene)-4,5,6,7-tetrahydro-1H-pyrazolo[4,3-c]pyridine-3-carboxylic acid [(1R)-1-phenyl-ethyl]-amide], for which the inhibition at 0.2 µM in experiment [1] was found to be 13%. The pIC50 in experiment [2] is 8.05. The compound further had a negative-log EC50 (pEC50) in experiment [3] of 9.00.

Consider `C[C@@H](NC(=O)c1nn(-c2ccc(Cl)cc2)c2c1CN(S(C)(=O)=O)C/C2=C\c1ccc(F)cc1)c1ccccc1` [Cpd 71, (7E)-1-(4-chloro-phenyl)-7-(4-fluoro-benzylidene)-5-methanesulfonyl-4,5,6,7-tetrahydro-1H-pyrazolo[4,3-c]pyridine-3-carboxylic acid [(1R)-1-phenyl-ethyl]-amide], for which the inhibition at 0.2 µM in experiment [1] is 3%. The same compound had a pIC50 in experiment [2] of 8.40. For the same compound, the pEC50 in experiment [3] is 9.00.

On to `CCOC(=O)CN1C/C(=C\c2ccc(F)cc2)c2c(c(C(=O)N[C@H](C)c3ccccc3)nn2-c2ccc(Cl)cc2)C1` [Cpd 72, (7E)-[1-(4-chloro-phenyl)-7-(4-fluoro-benzylidene)-3-[(1R)-1-phenyl-ethylcarbamoyl]-1,4,6,7-tetrahydro-pyrazolo[4,3-c]pyridin-5-yl]-acetic acid ethyl ester], for which the inhibition at 0.2 µM in experiment [1] was determined as 17%. In experiment [2], this compound showed a negative-log IC50 (pIC50) of 8.00. The pEC50 in experiment [3] was 8.30.
